Source: patent US11059832B2, “HPK1 inhibitors and methods of using same” (University Health Network, priority 2015, dated 2021)

Legend:
LCK = biological target: T1, LCK (Homo sapiens, UniProt P06239); assay: LCK inhibition, FRET based Z'-LYTE Kinase Assay; assay type: biochemical; conditions: 25 nM LCK, 180 μM ATP; read-out: IC50 Range Lck
T1 construct: purchased Invitrogen P3043
Method: (§1) FLT3 and LCK compound inhibition were determined using FRET based Z′-LYTE Kinase Assay Kit with Tyrosine 2 peptide as the substrate (Invitrogen cat #PV3191). […] The % inhibition values were determined according to the manufacturer's directions and IC50 values were obtained using a non-linear 4 point logistic curve fit (XLfit4, IDBS).

FLT3 = biological target: T2, FLT3 (Homo sapiens, UniProt P36888); assay: FLT3 inhibition, FRET based Z'-LYTE Kinase Assay; assay type: biochemical; conditions: 1 nM FLT3, 940 μM ATP; read-out: IC50 Range Flt3
T2 construct: purchased Invitrogen PV3182
T2 sequence (P36888 27-993): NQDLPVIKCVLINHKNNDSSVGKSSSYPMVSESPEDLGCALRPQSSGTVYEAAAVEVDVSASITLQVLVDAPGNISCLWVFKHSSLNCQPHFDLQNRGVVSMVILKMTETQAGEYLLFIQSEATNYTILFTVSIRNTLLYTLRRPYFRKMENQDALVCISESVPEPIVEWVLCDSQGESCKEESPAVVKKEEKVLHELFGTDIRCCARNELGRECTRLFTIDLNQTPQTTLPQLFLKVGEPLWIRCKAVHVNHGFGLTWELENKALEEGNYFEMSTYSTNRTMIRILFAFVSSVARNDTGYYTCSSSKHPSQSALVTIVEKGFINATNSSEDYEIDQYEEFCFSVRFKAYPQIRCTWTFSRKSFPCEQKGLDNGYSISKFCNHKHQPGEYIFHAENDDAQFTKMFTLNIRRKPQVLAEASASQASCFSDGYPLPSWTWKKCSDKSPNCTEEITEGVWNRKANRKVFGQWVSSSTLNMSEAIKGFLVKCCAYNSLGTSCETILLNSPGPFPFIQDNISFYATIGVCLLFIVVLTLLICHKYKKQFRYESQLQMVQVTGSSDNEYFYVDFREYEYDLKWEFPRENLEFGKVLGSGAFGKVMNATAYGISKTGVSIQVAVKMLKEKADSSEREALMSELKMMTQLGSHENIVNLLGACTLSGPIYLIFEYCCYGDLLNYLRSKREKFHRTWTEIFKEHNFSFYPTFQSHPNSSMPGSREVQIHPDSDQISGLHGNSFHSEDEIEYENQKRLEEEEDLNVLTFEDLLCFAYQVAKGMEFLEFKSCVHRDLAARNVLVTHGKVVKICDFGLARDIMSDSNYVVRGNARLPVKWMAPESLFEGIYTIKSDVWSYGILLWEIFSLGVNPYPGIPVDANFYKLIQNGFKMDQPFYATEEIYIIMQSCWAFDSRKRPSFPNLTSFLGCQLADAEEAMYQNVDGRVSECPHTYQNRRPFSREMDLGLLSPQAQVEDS
Method: as §1

[1] = tested on: SLP-76 serine 376 phosphorylation in α-CD3 stimulated Jurkat E6.1 cells; assay: In vitro phosphorylation assay, SLP-76 Ser376 (immunoblot); assay type: cell-based; conditions: Homo sapiens, 4 h pretreatment, substantive = >75% inhibition as estimated by immunoblot analysis, read-out: SLP76 S376 Phosphorylation Onset-Substantive* Inhibition
Method: (§2) Jurkat E6.1 cells were obtained from American Type Culture Collection (ATCC, Manassas, Va.), and maintained according to the supplier's instructions. Cells were washed three times and starved in RPMI 1640 medium supplemented with 0.5% fetal calf serum for 18 h at 37° C. Serum starved cells were pretreated with the indicated concentration of inhibitor for 4 hours before stimulation with 10 μg/ml α-CD3 antibody (BioLegend, Inc., San Diego, Calif.) for 10 min at 37° C. The cells were washed once in phosphate-buffered saline (pH 7.4) containing 10 mm sodium pyrophosphate, 10 mm sodium fluoride, 10 mm EDTA, and 1 mm sodium orthovanadate. Protein lysates were prepared using ice-cold radioimmunoprecipitation assay (RIPA) lysis buffer. A total of 100 μg of cell lysate was loaded onto Bis-Tris gels (Life Technologies, Carlsbad, Calif.) with full-range molecular weight marker as a size reference, and resolved by SDS-PAGE electrophoresis. Proteins were transferred to PVDF membrane (Millipore, Billerica, Mass.), blocked and probed with antibodies for phospho-SLP-76 (Ser376) (rabbit polyclonal #13177; Cell Signaling Technology Inc., Danvers, Mass.), SLP-76 (rabbit polyclonal #4958; Cell Signaling Technology Inc., Danvers, Mass.), phospho-ERK (mouse monoclonal sc-7383; Santa Cruz Biotechnology Inc., Santa Cruz, Calif.) and ERK1/2 (rabbit polyclonal 06-182; Millipore, Billerica, Mass.). Secondary antibodies were diluted 1 in 15,000 and incubated for 1 h at rt. Protein bands were visualized and quantified using Odyssey near infrared imager (LI-COR, Lincoln, Nebr.).
(§3) Table 2 below lists effects of representative compounds of the present invention against SLP-76 serine 376 phosphorylation and ERK1/2 T202/Y204 phosphorylation in α-CD3 stimulated Jurkat E6.1 cells.

[2] = tested on: ERK1/2 T202/Y204 phosphorylation in α-CD3 stimulated Jurkat E6.1 cells; assay: In vitro phosphorylation assay, ERK1/2 T202/Y204 (immunoblot); assay type: cell-based; conditions: Homo sapiens, 4 h pretreatment, read-out: ERK1/2 T202/Y204 Phosphorylation Onset Inhibition
Method: as §2, §3

CT26 WT colon carcinoma = assay: Syngeneic CT26 cell line xenograft model; assay type: in vivo; conditions: for Survival (tumour size <1500 mm^3 at day 21): 8 animals
Method: Six to eight week old female BALB/c mice were purchased from Jackson Laboratories and received and acclimated at the MaRS-TMDT Animal Resources Centre for 1 week prior to the start of the experiment. […] Mice were housed in microisolator cages and maintained in an environment with a 12 h light cycle at 20-22° C. and 40-60% humidity. On the day of implantation, CT26 cells were harvested and re-suspended with serum free RPMI1640 to a concentration of 1×10^7/mL and each mouse was injected subcutaneously with a volume of 0.1 mL containing 1×10^6 CT26 cells in the right rear flank. […] Toxicity was evaluated by body weight measurements and clinical observations. Tumour measurements and body weights were taken three times per week.
According to University Health Network (UHN) Animal Use Protocols (AUPs), mice in efficacy experiments should be sacrificed when the tumour size is above 1500 mm^3 or if the bodyweight of the animal decreases or if the animals are displaying clinical signs that require termination for humane reasons. […] A tumour size of <1500 mm^3 at day 21 was used as a cutoff to represent survival.

T1 sequence (P06239 whole entry, species assumed): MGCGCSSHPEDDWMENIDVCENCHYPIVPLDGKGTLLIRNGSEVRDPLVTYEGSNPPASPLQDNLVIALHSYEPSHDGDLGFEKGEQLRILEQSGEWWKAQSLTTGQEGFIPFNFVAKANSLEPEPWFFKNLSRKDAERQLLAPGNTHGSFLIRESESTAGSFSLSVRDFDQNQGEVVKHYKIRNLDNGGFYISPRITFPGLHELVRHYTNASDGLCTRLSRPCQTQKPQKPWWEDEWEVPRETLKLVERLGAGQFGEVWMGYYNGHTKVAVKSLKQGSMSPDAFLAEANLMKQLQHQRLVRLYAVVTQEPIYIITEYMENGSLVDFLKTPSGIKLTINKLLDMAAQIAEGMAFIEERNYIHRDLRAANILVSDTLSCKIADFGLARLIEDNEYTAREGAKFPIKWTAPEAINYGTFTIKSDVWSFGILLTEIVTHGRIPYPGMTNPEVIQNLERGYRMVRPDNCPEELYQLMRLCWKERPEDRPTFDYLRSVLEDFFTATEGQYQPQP

Structure (SMILES): CN1CCN(c2ccc3nc(-c4c(N)c5ccsc5[nH]c4=O)[nH]c3c2)CC1 [Example A1, 4-amino-5-(6-(4-methylpiperazin-1-yl)-1H-benzo[d]imidazol-2-yl)thieno[2,3-b]pyridin-6(7H)-one]
- IC50 (LCK): 50 to 500 nM
- IC50 (FLT3): ≤ 50 nM
- IC75 [1]: 300 to 1000 nM
- minimal effective concentration [2]: > 3 µM
- Tumour growth inhibition (TGI) (CT26 WT colon carcinoma; 75 mg/kg QD PO for 21 days, day 21, BALB/c mice): 44%
- Survival (tumour size <1500 mm^3 at day 21) (CT26 WT colon carcinoma; 75 mg/kg/day Example A1 arm): 25%
- Tumour growth inhibition (TGI) (CT26 WT colon carcinoma; 150 mg/kg QD PO Example A1 combined with 150 μg anti-PD-1 antibody IP day 0, 3, 6 and 10, day 21): 86%
- Tumour growth inhibition (TGI) (CT26 WT colon carcinoma; 150 mg/kg QD PO for 21 days, day 21, BALB/c mice): 64%
- Survival (tumour size <1500 mm^3 at day 21) (CT26 WT colon carcinoma; 150 mg/kg/day Example A1 and anti-PD-1 arm): 87.5%
- Survival (tumour size <1500 mm^3 at day 21) (CT26 WT colon carcinoma; 150 mg/kg/day Example A1 arm): 37.5%
- Tolerability (body weight, clinical signs) (CT26 WT colon carcinoma; 75 and 150 mg/kg QD PO 21 days, BALB/c mice, all animals gaining weight, none terminated due to clinical signs): well tolerated
